Reference: the supplement of paper PMC5908809

Tests used:
[1] = tested on: normal primary NK cells, pool 1 (3 donors) (IL-2 2.5 ng/mL); test: percent inhibition of viability; higher = more inhibition; conditions: 72 h
[2] = tested on: normal primary NK cells, pool 3 (3 donors) (IL-2 2.5 ng/mL); test: as above; conditions: 72 h
DERL-7 (IL-2 2.5 ng/mL) [3] = test: as above; conditions: 72 h
NK-92 (IL-2 2.5 ng/mL) [4] = test: as above; conditions: 72 h
YT (IL-2 2.5 ng/mL) [5] = test: as above; conditions: 72 h
[6] = tested on: normal primary NK cells, pool 2 (3 donors) (IL-2 2.5 ng/mL); test: as above; conditions: 72 h
IMC-1 (IL-2 20 ng/mL) [7] = test: as above; conditions: 72 h
SNK-6 (IL-2 2.5 ng/mL) [8] = test: as above; conditions: 72 h
[9] = tested on: normal primary NK cells, pool 1 (3 donors), resting (IL-2 0 ng/mL); test: as above; conditions: 72 h
KAI3 (IL-2 2.5 ng/mL) [10] = test: as above; conditions: 72 h
NK-YS (IL-2 2.5 ng/mL) [11] = test: as above; conditions: 72 h
NKL (IL-2 2.5 ng/mL) [12] = test: as above; conditions: 72 h
KHYG-1 (IL-2 2.5 ng/mL) [13] = test: as above; conditions: 72 h
[14] = tested on: normal NK cells expanded with K562-aAPC; test: as above; conditions: 72 h, IL-2 2.5 ng/mL
Procedure: (§1)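 Drug sensitivity and resistance testing on K562-aAPC-expanded normal NK cells: 5 concentrations (10-fold steps over a 10,000-fold range), 72 h at 37 °C, viability by CellTiter-Glo normalised to DMSO and benzethonium chloride controls; DSS from the fitted curve.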

[15] = tested on: normal NK cells expanded with K562-aAPC; test: drug sensitivity score (DSS) (DSS units); higher = more sensitive; extreme values may be limits of the assay; conditions: 72 h; IL-2 2.5 ng/mL
Procedure: as §1

[16] = tested on: normal primary NK cells, pool 1 (3 donors) (IL-2 2.5 ng/mL); test: as above; conditions: 72 h
[17] = tested on: normal primary NK cells, pool 3 (3 donors) (IL-2 2.5 ng/mL); test: as above; conditions: 72 h
DERL-7 (IL-2 2.5 ng/mL) [18] = test: as above; conditions: 72 h
NK-92 (IL-2 2.5 ng/mL) [19] = test: as above; conditions: 72 h
YT (IL-2 2.5 ng/mL) [20] = test: as above; conditions: 72 h
[21] = tested on: normal primary NK cells, pool 2 (3 donors) (IL-2 2.5 ng/mL); test: as above; conditions: 72 h
IMC-1 (IL-2 20 ng/mL) [22] = test: as above; conditions: 72 h
SNK-6 (IL-2 2.5 ng/mL) [23] = test: as above; conditions: 72 h
[24] = tested on: normal primary NK cells, pool 1 (3 donors), resting (IL-2 0 ng/mL); test: as above; conditions: 72 h
KAI3 (IL-2 2.5 ng/mL) [25] = test: as above; conditions: 72 h
NK-YS (IL-2 2.5 ng/mL) [26] = test: as above; conditions: 72 h
NKL (IL-2 2.5 ng/mL) [27] = test: as above; conditions: 72 h
KHYG-1 (IL-2 2.5 ng/mL) [28] = test: as above; conditions: 72 h

O=c1[nH]c(=O)n([C@H]2C[C@H](O)[C@@H](CO)O2)cc1F [Floxuridine] (max concentration tested 10000 nM)
percent inhibition of viability [%]
Conditions	1 nM	10 nM	100 nM	1000 nM	10000 nM
DERL-7 (IL-2 2.5 ng/mL) [3]	-7.14	68.8	44.1	69.8	94.3
IMC-1 (IL-2 20 ng/mL) [7]	-2.91	-1.68	33.5	96.1	95.4
KAI3 (IL-2 2.5 ng/mL) [10]	-6.31	31.3	63.4	63.7	45.6
KHYG-1 (IL-2 2.5 ng/mL) [13]	0.05	58.9	96.8	99.1	95.1
NK-92 (IL-2 2.5 ng/mL) [4]	-16.2	25.2	72.5	82.6	78.8
NK-YS (IL-2 2.5 ng/mL) [11]	-4.95	13.6	73.5	84	78.7
NKL (IL-2 2.5 ng/mL) [12]	-14.5	15.7	48.8	68.5	82.9
SNK-6 (IL-2 2.5 ng/mL) [8]	15.3	9.27	54	91.8	89.4
YT (IL-2 2.5 ng/mL) [5]	-3.94	0.97	9.92	50.2	57.9
[1]	-6.27	-7.98	-5.58	6.75	5.43
[2]	-14	-7.11	-9.62	-2.43	-3.12
[6]	-16.1	-13.4	-7.65	-1.05	8.12
[9]	-14.4	-13.5	-18.7	8.19	9.19
[14]	-4.55	-4.54	25.1	39.5	43.4

Conditions	drug sensitivity score
DERL-7 (IL-2 2.5 ng/mL) [18]	25.9
IMC-1 (IL-2 20 ng/mL) [22]	22
KAI3 (IL-2 2.5 ng/mL) [25]	24
KHYG-1 (IL-2 2.5 ng/mL) [28]	37.2
NK-92 (IL-2 2.5 ng/mL) [19]	27.2
NK-YS (IL-2 2.5 ng/mL) [26]	25.9
NKL (IL-2 2.5 ng/mL) [27]	20.2
SNK-6 (IL-2 2.5 ng/mL) [23]	23.3
YT (IL-2 2.5 ng/mL) [20]	10.4
[15]	10.9
[16]	0
[17]	0
[21]	0
[24]	0

CCCOc1ccn2c(C(C)=O)cc(-c3ccccc3S(C)(=O)=O)c2c1 [GSK2801] (max concentration tested 10000 nM)
percent inhibition of viability [%]
Conditions	1 nM	10 nM	100 nM	1000 nM	10000 nM
DERL-7 (IL-2 2.5 ng/mL) [3]	3.66	0.68	6.46	3.78	26.7
IMC-1 (IL-2 20 ng/mL) [7]	-5.58	-4	-5.67	-6.64	-7.6
KAI3 (IL-2 2.5 ng/mL) [10]	-0.66	1.6	3.26	1.19	13.8
KHYG-1 (IL-2 2.5 ng/mL) [13]	-6.23	-1.14	-4.5	-0.03	3.02
NK-92 (IL-2 2.5 ng/mL) [4]	13.2	-11.5	-4.85	-3.31	1.17
NK-YS (IL-2 2.5 ng/mL) [11]	-2.46	-2.16	-2.35	-0.19	12.5
NKL (IL-2 2.5 ng/mL) [12]	-3.96	-3.81	7.18	-1.4	23.3
SNK-6 (IL-2 2.5 ng/mL) [8]	9.8	1.5	0.45	0.35	15.4
YT (IL-2 2.5 ng/mL) [5]	-2.89	-0.79	-3.2	1.49	5.33
[1]	-8.08	-8.31	-8.28	1.69	18.7
[2]	-5.87	2.4	-5.15	-6.31	4.35
[6]	-4.35	-4.55	-1.61	-2.13	14.3
[9]	-9.69	-17.6	-10.8	10.7	38
[14]	0.95	-8.4	-3.92	-5.08	3.93

Conditions	drug sensitivity score
DERL-7 (IL-2 2.5 ng/mL) [18]	1.67
IMC-1 (IL-2 20 ng/mL) [22]	0
KAI3 (IL-2 2.5 ng/mL) [25]	0.24
KHYG-1 (IL-2 2.5 ng/mL) [28]	0
NK-92 (IL-2 2.5 ng/mL) [19]	0
NK-YS (IL-2 2.5 ng/mL) [26]	0.07
NKL (IL-2 2.5 ng/mL) [27]	0.73
SNK-6 (IL-2 2.5 ng/mL) [23]	0.29
YT (IL-2 2.5 ng/mL) [20]	0
[15]	0
[16]	0.69
[17]	0
[21]	0.12
[24]	3.45
